How the values were obtained:
[1] = test system: male dd-strain rats; experiment: Acute toxicity test (minimum lethal dose); format: in vivo; conditions: mortality for 7 days
Protocol: Groups of male dd-strain rats (each group consisting of five rats) weighing 20±1 g were used. The compounds of the present invention were administered orally (po: 0.3 mg/g) or intraperitoneally (ip: 0.1 mg/g). The MLD (minimum lethal dose) was calculated from the mortality for 7 days after the administration to obtain the results given in Table 1.

[2] = test system: isolated ileum of guinea-pig; experiment: Test for antihistaminergic effects on the isolated ileum of guinea-pig (histamine contraction, in vitro); set-up: species or system guinea-pig (male Hartly-strain); conditions: depressing ratio of 80% or more of histamine contraction; for minimal effective concentration: Cavia porcellus, 0.05 h, read-out: Antihistaminergic activity: MED
Protocol: (§1) Male Hartly-strain guinea-pigs weighing about 250 g are killed and the abdomen is opened. The part (2-3 cm in length) of the ileum 10 cm away from the caecum to the pylorus is cut off as a preparation. The preparation is suspended with serre-fine in a Magnus bath containing 10 ml of Tyrode's solution at 32±1° C. under an air bubble. The contraction of the ileum is recorded on Kymograph through hebel when 0.1 ml of acetylcholine at a concentration of 10^-3 g/ml is added to the Tyrode's solution.
(§2) On the other hand, 3 minutes after administration of the test compounds, the same procedure as mentioned above is carried out to record the contraction.
In this test, 0.1 ml of histamine at a concentration of 5×10^-3 g/l is used.

[3] = Antiasthmatic activity; format: in vivo; conditions: po; for minimal effective dose: read-out: Antiasthmatic activity: MED
[4] = test system: isolated ileum of guinea-pig; experiment: Test for anticholinergic effects on the isolated ileum of guinea-pig (acetylcholine contraction, in vitro); set-up: species or system guinea-pig (male Hartly-strain); conditions: depressing ratio of 80% or more of acetylcholine contraction, compound 3 minutes before; for minimal effective concentration: Cavia porcellus, 0.05 h, read-out: Anticholinergic activity: MED (minimum effective dose)
Protocol: as §1, §2

[5] = test system: blood platelets (platelet-rich plasma); experiment: Test for the inhibition of platelet aggregation (collagen-induced, platelet-rich plasma); format: cell-based, male white rabbits; conditions: depressing ratio of 50% of collagen-induced aggregation, compound 3 minutes before; for minimal effective concentration: Oryctolagus cuniculus, Platelet, 0.05 h, read-out: Antiplatelet aggregation activity: MED
Protocol: In this test, 9 vols. of blood are sampled from the caroted artery of male white rabbits weighing 2 to 2.5 kg and placed in a silicon-coated flask containing 1 vol. of 3.8% sodium citrate. The thus obtained blood is centrifuged at 1,000 rpm for 15 minutes to obtain platelet-rich plasma. The aggregation of the blood platelets is observed using an aggregometer, when collagen is added to the platelet-rich plasma to the extent of the final concentration that 50% of platelet aggregation is caused in the presence of 100 γ/ml of aspirin. On the other hand, 3 minutes after administration of the test compounds to the platelet-rich plasma, the same procedure as mentioned above is carried out to observe the aggregation of blood platelet. The test compounds showing a depressing ratio of 50%, compared with the inhibition of aggregation by collagen alone, are concluded to have antiplatelet aggregation activity.

Row | Compound | Acute toxicity: MLD (minimum lethal dose) ([1]; ip) | Acute toxicity: MLD (minimum lethal dose) ([1]; po) | Antihistaminergic activity: MED [2] | Antiasthmatic activity: MED [3] | Anticholinergic activity: MED (minimum effective dose) [4] | Antiplatelet aggregation activity: MED [5] | minimal effective concentration [2] | minimal effective dose [3] | minimal effective concentration [4] | minimal effective concentration [5]
1 | 4-methyl-11-(3-quinuclidinyl)amino-6,11-dihydrodibenz[b,e]oxepin [Compound 56] | 100 mg/kg | 200 mg/kg | 1 µg/mL | 100 mg/kg | 1 µg/mL | 20 µg/mL | – | – | – | –
2 | CCc1ccc2c(c1)C(NC1CN3CCC1CC3)c1ccccc1CO2 (stereo not drawn) [Compound 21, 2-ethyl-11-(3-quinuclidinyl)amino-6,11-dihydrodibenz[b,e]oxepin] | 100 mg/kg | 300 mg/kg | – | – | – | – | 0.1 µg/mL | 25 mg/kg | 0.1 µg/mL | 50 µg/mL
3 | CCc1ccc2c(c1)C(NCCN(C)C)c1ccccc1CO2 (stereo not drawn) [Compound 17, 2-ethyl-11-{2-(dimethylamino)ethyl}amino-6,11-dihydrodibenz[b,e]oxepin] | > 100 mg/kg | 300 mg/kg | – | – | – | – | 0.3 µg/mL | 10 mg/kg | 0.01 µg/mL | 50 µg/mL
4 | CCC(C)c1ccc2c(c1)C(NCCN(CC)CC)c1ccccc1CO2 (stereo not drawn) [Compound 11, 2-(1-methyl) propyl-11-{2-(diethylamino)ethyl}amino-6,11-dihydrodibenz[b,e]oxepin] | 100 mg/kg | > 300 mg/kg | – | – | – | – | 0.3 µg/mL | 100 mg/kg | 0.03 µg/mL | 10 µg/mL
5 | CCc1ccc2c(c1)C(N1CCN(CCO)CC1)c1ccccc1CO2 (stereo not drawn) [Compound 38, 2-ethyl-11-{4-(2-hydroxyethyl)-1-piperazinyl}-6,11-dihydrodibenz[b,e]oxepin] | > 100 mg/kg | > 300 mg/kg | – | – | – | – | 1 µg/mL | 100 mg/kg | 1 µg/mL | 100 µg/mL
6 | CCc1ccc2c(c1)C(NCCN(CC)CC)c1ccccc1CO2 (stereo not drawn) [Compound 1, 2-ethyl-11-{2-(diethylamino)ethyl}amino-6,11-dihydrodibenz[b,e]oxepin] | > 100 mg/kg | > 300 mg/kg | – | – | – | – | 1 µg/mL | 50 mg/kg | 1 µg/mL | 20 µg/mL
7 | CC(C)(C)c1ccc2c(c1)C(NC1CN3CCC1CC3)c1ccccc1CO2 (stereo not drawn) [Compound 52, 2-(1,1-dimethyl)ethyl-11-(3-quinuclidinyl)amino-6,11-dihydrodibenz[b,e]oxepin] | 100 mg/kg | > 300 mg/kg | – | – | – | – | 0.3 µg/mL | 50 mg/kg | 3 µg/mL | 1 µg/mL
8 | Cc1ccc2c(c1)C(NCCN(C)C)c1ccccc1CO2 (stereo not drawn) [Compound 16, 2-methyl-11-{2-(dimethylamino)ethyl}amino-6,11-dihydrodibenz[b,e]oxepin] | > 100 mg/kg | 300 mg/kg | – | – | – | – | 10 µg/mL | 25 mg/kg | 3 µg/mL | 50 µg/mL
9 | CCc1ccc2c(c1)C(N1CCN(C)CC1)c1ccccc1CO2 (stereo not drawn) [Compound 66, 2-ethyl-11-(4-methyl-1-piperazinyl)-6,11-dihydrodibenz[b,e]oxepin] | > 100 mg/kg | > 300 mg/kg | – | – | – | – | 1 µg/mL | 10 mg/kg | 10 µg/mL | 50 µg/mL
10 | CN1CCN(C2c3ccccc3COc3ccc(Cl)cc32)CC1 (stereo not drawn) [Compound 70, 2-chloro-11-(4-methyl-1-piperazinyl)-6,11-dihydrodibenz[b,e]oxepin] | 100 mg/kg | 200 mg/kg | – | – | – | – | 0.3 µg/mL | 10 mg/kg | 1 µg/mL | 50 µg/mL
11 | CCN(CC)CCNC1c2ccccc2COc2ccc(C)cc21 (stereo not drawn) [Compound 8, 2-methyl-11-{2-(diethylamino)ethyl}amino-6,11-dihydrodibenz[b,e]oxepin] | > 100 mg/kg | 200 mg/kg | – | – | – | – | 1 µg/mL | 25 mg/kg | 10 µg/mL | 20 µg/mL
12 | CN(C)CCNC1c2ccccc2COc2ccc(Cl)cc21 (stereo not drawn) [Compound 19, 2-chloro-11-{2-(dimethylamino)ethyl}amino-6,11-dihydrodibenz[b,e]oxepin] | > 100 mg/kg | > 300 mg/kg | – | – | – | – | 1 µg/mL | 25 mg/kg | 3 µg/mL | 50 µg/mL
13 | Cc1ccc2c(c1)C(N1CCN(C)CC1)c1ccccc1CO2 (stereo not drawn) [Compound 67, 2-methyl-11-(4-methyl-1-piperazinyl)-6,11-dihydrodibenz[b,e]oxepin] | > 100 mg/kg | > 300 mg/kg | – | – | – | – | 0.3 µg/mL | 25 mg/kg | 10 µg/mL | 50 µg/mL
14 | CCN(CC)CCNC1c2ccccc2COc2ccc(F)cc21 (stereo not drawn) [Compound 9, 2-fluoro-11-{2-(diethylamino)ethyl}amino-6,11-dihydrodibenz[b,e]oxepin] | 100 mg/kg | > 300 mg/kg | – | – | – | – | 1 µg/mL | 50 mg/kg | 3 µg/mL | 50 µg/mL
15 | Clc1ccc2c(c1)C(NC1CN3CCC1CC3)c1ccccc1CO2 (stereo not drawn) [Compound 23, 2-chloro-11-(3-quinuclidinyl)amino-6,11-dihydrodibenz[b,e]oxepin] | 100 mg/kg | 300 mg/kg | – | – | – | – | 0.3 µg/mL | 50 mg/kg | 1 µg/mL | 100 µg/mL
16 | COc1ccc2c(c1)C(NC1CN3CCC1CC3)c1ccccc1CO2 (stereo not drawn) [Compound 24, 2-methoxy-11-(3-quinuclidinyl)amino-6,11-dihydrodibenz[b,e]oxepin] | 100 mg/kg | 200 mg/kg | – | – | – | – | 0.1 µg/mL | 50 mg/kg | 0.3 µg/mL | 100 µg/mL
17 | Cc1ccc2c(c1)C(NCCCN(C)C)c1ccccc1CO2 (stereo not drawn) [Compound 14, 2-methyl-11-{3-(dimethylamino)propyl}amino-6,11-dihydrodibenz[b,e]oxepin] | > 100 mg/kg | > 300 mg/kg | – | – | – | – | 10 µg/mL | 100 mg/kg | 10 µg/mL | 20 µg/mL
18 | COc1ccc2c(c1)C(N1CCN(C)CC1)c1ccccc1CO2 (stereo not drawn) [Compound 68, 2-methoxy-11-(4-methyl-1-piperazinyl)-6,11-dihydrodibenz[b,e]oxepin] | 100 mg/kg | 200 mg/kg | – | – | – | – | 3 µg/mL | 100 mg/kg | 10 µg/mL | 100 µg/mL
19 | CCc1ccc2c(c1)C(NCCN1CCCCC1)c1ccccc1CO2 (stereo not drawn) [Compound 35, 2-ethyl-11-(2-piperidinoethyl)amino-6,11-dihydrodibenz[b,e]oxepin] | > 100 mg/kg | 300 mg/kg | – | – | – | – | 1 µg/mL | 25 mg/kg | 3 µg/mL | 20 µg/mL

Reference: patent publication US4396550A, “Dibenz [b,e] oxepin derivatives” (Kyowa Hakko Kogyo Co., Ltd., priority 1980, dated 1983)
